In patent publication US5310749A, “Antiprotozoal composition containing a 2-nitroimidazole derivative and method thereof” (Pola Chemical Industries Inc., priority 1991, dated 1994):

Key:
Trypanosoma cruzi [1] = test: Anti-protozoan action 1 (in vitro), T. cruzi-infected A204 cells; type: cell-based; design: key: +++: same number of protozoa alive as control; ++: slightly less number alive than control; +: less number alive than control; ±: only a few alive; -: all dead; settings: A204 cells infected with T. cruzi, 37° C., 24 hours
Method: A204 cells (derived from a […]), which had been infected in advance with Trypanosoma cruzi and maintained by subculture at 37° C., were cultured in a 24-well plate for tissue culture. The protozoa in the number of about 10^5 were confirmed to be present. After the cells were treated with 50 μmol, 100 μmol and 500 μmol of compounds 1) to 3), they were cultured at 37° C. for 24 hours. Life and death of the protozoa was observed under microscope and scored. The medium used was Dulbecco Modified Eagle Medium manufactured by Dainihon-Seiyaku K. K. added with 10% bovine serum. Control was free of any of compounds 1 to 3).

Trypanosoma cruzi [2] = test: Anti-protozoan action 2 (in vitro), T. cruzi culture in GIT medium; type: cell-based; design: key: +++: same number of protozoa alive as control; ++: slightly less number alive than control; +: less number alive than control; ±: only a few alive; -: all dead; settings: GIT medium (serum-free), 27° C., 120 hours
Method: Trypanosoma cruzi was cultured at 27° C. in a GIT medium (serum-free medium) manufactured by Nippon Seiyaku K. K. which was modified to contain […] of hemine. 50 μmol, 100 μmol, 250 μmol and 500 μmol of each of compounds 1) to 3) were added thereto. 120 hours later, life or death of the protozoa was observed under microscope and scored according to the criteria in Example 1. Control was free of any of compounds 1) to 3).

Acute toxicity = settings: mouse, in vivo, ip
Description: ICR mice were intraperitoneally administered with compound 1) for the acute toxicity test. Observation was continued for 14 days after the administration.

[3] = system: Trypanosoma cruzi (Tulahuen strain); test: Anti-protozoan action (in vivo), survival of infected ICR mice (Example 3); design: species or system Trypanosoma cruzi (Tulahuen strain) in male ICR mice; settings: 200 mg/kg on days 5-9; 400,000 T. cruzi i.p.; all of 3 mice; control 14-15 days
Method: Trypanosoma cruzi (Tulahuen strain) in the number of 400,000 was intraperitoneally administered to a group of 4 week old male ICR mice. At each of fifth, sixth, seventh, eighth and ninth day of the administration,200 mg/kg of compound 1) was given to the mice. Control group was given saline solution instead of compound 1). The anti-protozoan effect of compound 1) was determined based on the days of survival of the mice.

[4] = system: Trypanosoma cruzi (Tulahuen Strain); test: Deaths and presence of protozoa in infected ICR mice, compound 1) with or without anionic copolymer (Example 5); type: in vivo, Trypanosoma cruzi (Tulahuen Strain) in ICR male mice
Method: Five groups (Groups 1 to 5) of four week old ICR male mice, each group consisting of 3 mice, were provided. Group 2 and Group 5 mice were given 4.4 mg of acrylic acid-diisobutylvinyl ether copolymer (monomer ratio=1:1, average molecular weight=1.29×10^5) as dissolved in a 0.2 ml saline. On the second day, all animals were intraperitoneally given Trypanosoma cruzi (Tulahuen Strain) in the number of 40,000 for each. On the fifth, sixth, seventh, eighth and ninth day of the administration of the Tripanosoma, Group 1 and Group 2 mice were given saline, and Group 3 and Group 5 mice were given compound 1) (200 mg/kg) as dissolved in saline. Group 4 mice were intraperitoneally given 4.4 mg of acrylic acid-diisobutyl vinyl ether copolymer (monomer ratio=1:1, average molecular weight=1.29×10^5) and compound 1) (200 mg/kg) on the fifth day of the administration of the Trypanosoma, and on the sixth, seventh, eighth and ninth day of the administration, compound 1) (200 mg/kg) was intraperitoneally administered. Observation was continued until 60 th day of administration of Trypanosoma. The mice which were alive on the 60th day were killed and dissected to check the presence or absence of the protozoa in blood, the heart and in the liver under microscope.

[5] = system: Trypanosoma cruzi (Tulahuen strain); test: Anti-protozoan action (in vivo), survival of infected C3H/Hecrj mice (Example 4); design: species or system Trypanosoma cruzi (Tulahuen strain) in male C3H/Hecrj mice; settings: 200 mg/kg on days 4-8; 200,000 T. cruzi i.p.; 4 mice; control 12 days
Method: Trypanosoma cruzi (Tulahuen strain) in the number of 200,000 was intraperitoneally administered to a group of 5 week old male C3H/Hecrj mice. At each of fourth, fifth, sixth, seventh and eighth day of the administration, 200 mg/kg of compound 1) was given to the mice. Control group was given saline solution instead of compound 1). The anti-protozoaneffect of compound 1) was determined based on the days of survival of the mice.

[6] = ICR mice, intraperitoneal, observation 14 days

Row | Compound | Life and death of the protozoa, score (Trypanosoma cruzi [1]; 50 μmol) | Life and death of the protozoa, score (Trypanosoma cruzi [1]; 100 μmol) | Life and death of the protozoa, score (Trypanosoma cruzi [1]; 500 μmol) | Life or death of the protozoa, score (Trypanosoma cruzi [2]; 50 μmol) | Life or death of the protozoa, score (Trypanosoma cruzi [2]; 100 μmol) | Life or death of the protozoa, score (Trypanosoma cruzi [2]; 250 μmol) | Life or death of the protozoa, score (Trypanosoma cruzi [2]; 500 μmol) | LD50 at 336 h (Acute toxicity; [6]) | days of survival of the mice [3] | Number of Dead Samples ([4]; Group 3: compound 1) 200 mg/kg on days 5-9) | death in the groups given compound 1) ([4]; Group Nos. 3, 4 and 5) | days of survival of the mice [5] | LD50 at 336 h (Acute toxicity)
1 | O=[N+]([O-])c1nccn1[C@H]1O[C@H](CO)[C@@H](O)[C@H]1O [Compound 3)] | ++ | ++ | + | +++ | +++ | +++ | + | > 5000 mg/kg |  |  |  |  | 
2 | O=[N+]([O-])c1nccn1COCC=CCO [Compound 1)] | ± | - | - | ++ | ++ | + | - |  | more than 50 days | 0 | no death | more than 20 days | 830 mg/kg
3 | O=[N+]([O-])c1nccn1COC(CO)CO [Compound 2)] | ++ | ++ | - | +++ | +++ | +++ | +++ | 4300 mg/kg |  |  |  |  | 
